Article PMC9977294, “A parasitic fungus employs mutated eIF4A to survive on rocaglate-synthesizing Aglaia plants” (eLife, 2023)
Values joined by “and” are separate entries in the source; they are usually repeats but may differ in a detail not shown here. Equal entries are not always repeated. Where two headings read alike, the source gives them in different places.

Experiments:
Assay in all cases: Fluorescence polarization assay, FAM-labeled [AG]10 RNA and recombinant eIF4A
Assay type in all cases: binding
[1] = biological target: T1, H. sapiens eIF4A1 Phe163Gly (Homo sapiens, UniProt P60842, F163G)
T1 construct: His tag (N); made in house; host or cells: E. coli BL21 Star (DE3)
T1 sequence (P60842 whole entry F163G): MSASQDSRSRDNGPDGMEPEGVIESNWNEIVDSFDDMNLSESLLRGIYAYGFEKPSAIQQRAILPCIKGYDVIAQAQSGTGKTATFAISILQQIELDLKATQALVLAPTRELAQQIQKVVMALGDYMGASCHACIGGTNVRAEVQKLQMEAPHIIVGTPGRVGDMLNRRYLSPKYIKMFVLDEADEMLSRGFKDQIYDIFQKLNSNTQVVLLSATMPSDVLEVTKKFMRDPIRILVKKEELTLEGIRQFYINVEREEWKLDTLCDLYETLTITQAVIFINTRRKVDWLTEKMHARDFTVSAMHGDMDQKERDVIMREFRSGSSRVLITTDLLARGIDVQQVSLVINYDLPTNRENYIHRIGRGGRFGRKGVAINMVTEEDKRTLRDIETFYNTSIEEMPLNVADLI

[2] = biological target: T2, H. sapiens eIF4A1 WT Phe163 (Homo sapiens, UniProt P60842); conditions: RocA 50 µM
T2 construct: His tag (N); made in house; host or cells: E. coli BL21 Star (DE3)
T2 sequence (P60842 whole entry): as the sequence (P60842 whole entry F163G) above, with G163F counted along it

[3] = biological target: T3, O. sinensis eIF4A His154Gly (Ophiocordyceps sinensis, UniProt A0A8H4LTQ8, H154G); conditions: for Kd: [AG]10 10 nM, compound 50 µM, read-out: Kd between eIF4A protein and RNA
T3 sequence (A0A8H4LTQ8 1-397 H154G): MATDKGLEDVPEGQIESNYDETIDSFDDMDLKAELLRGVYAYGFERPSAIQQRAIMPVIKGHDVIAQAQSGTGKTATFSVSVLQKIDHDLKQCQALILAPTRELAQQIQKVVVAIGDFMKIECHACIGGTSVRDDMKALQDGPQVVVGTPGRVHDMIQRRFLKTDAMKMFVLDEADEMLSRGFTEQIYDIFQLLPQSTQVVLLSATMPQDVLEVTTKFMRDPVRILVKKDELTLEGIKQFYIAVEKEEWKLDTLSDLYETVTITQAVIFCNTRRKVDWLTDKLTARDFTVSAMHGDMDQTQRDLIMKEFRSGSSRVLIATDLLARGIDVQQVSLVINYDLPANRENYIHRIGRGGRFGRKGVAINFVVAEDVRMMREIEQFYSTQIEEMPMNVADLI

[4] = [AG]10, ADP + Pi, RocA 50 µM, protein 0.01 μM
[5] = [AG]10, ADP + Pi, RocA 50 µM, protein 0.05 μM
[6] = [AG]10, ADP + Pi, RocA 50 µM, protein 0.075 μM
[7] = [AG]10, ADP + Pi, RocA 50 µM, protein 0.1 μM
[8] = [AG]10, ADP + Pi, RocA 50 µM, protein 0.5 μM
[9] = [AG]10, ADP + Pi, RocA 50 µM, protein 0.75 μM
[10] = [AG]10, ADP + Pi, RocA 50 µM, protein 1 μM
[11] = [AG]10, ADP + Pi, RocA 50 µM, protein 5 μM
[12] = [AG]10, ADP + Pi, RocA 50 µM, protein 7.5 μM
[13] = [AG]10, ADP + Pi, RocA 50 µM, protein 10 μM
[14] = [AG]10, ADP + Pi, RocA 50 µM, protein 25 μM
[15] = [AG]10, ADP + Pi, RocA 50 µM, protein 50 μM
[16] = [AG]10 RNA, AMP-PNP, RocA, protein concentration 0.01 μM
[17] = [AG]10 RNA, AMP-PNP, RocA, protein concentration 0.05 μM
[18] = [AG]10 RNA, AMP-PNP, RocA, protein concentration 0.075 μM
[19] = [AG]10 RNA, AMP-PNP, RocA, protein concentration 0.1 μM
[20] = [AG]10 RNA, AMP-PNP, RocA, protein concentration 0.5 μM
[21] = [AG]10 RNA, AMP-PNP, RocA, protein concentration 0.75 μM
[22] = [AG]10 RNA, AMP-PNP, RocA, protein concentration 1 μM
[23] = [AG]10 RNA, AMP-PNP, RocA, protein concentration 5 μM
[24] = [AG]10 RNA, AMP-PNP, RocA, protein concentration 7.5 μM
[25] = [AG]10 RNA, AMP-PNP, RocA, protein concentration 10 μM
[26] = [AG]10 RNA, AMP-PNP, RocA, protein concentration 25 μM
[27] = [AG]10 RNA, AMP-PNP, RocA, protein concentration 50 μM

COc1ccc([C@@]23Oc4cc(OC)cc(OC)c4[C@]2(O)[C@H](O)[C@H](C(=O)N(C)C)[C@H]3c2ccccc2)cc1 [RocA, rocaglamide A]
fluorescence polarization, Mean [1, 4]: 0.04918
fluorescence polarization, replicates [1, 4]: 0.1421 and 0.05191 and -0.04645
fluorescence polarization, Mean [1, 5]: 0.02732
fluorescence polarization, replicates [1, 5]: 0.2322 and -0.03005 and -0.1202
fluorescence polarization, Mean [1, 6]: -0.02459
fluorescence polarization, replicates [1, 6]: 0.06011 and -0.02186 and -0.112
fluorescence polarization, Mean [1, 7]: -0.01913
fluorescence polarization, replicates [1, 7]: -0.03005 and -0.01366 (2×)
fluorescence polarization, Mean [1, 8]: -0.02459
fluorescence polarization, replicates [1, 8]: 0.0765 and 0.04372 and -0.194
fluorescence polarization, Mean [1, 9]: -0.02459
fluorescence polarization, replicates [1, 9]: 0.1831 and -0.05465 and -0.2022
fluorescence polarization, Mean [1, 10]: -0.01913
fluorescence polarization, replicates [1, 10]: 0.1093 and -0.06284 and -0.1038
fluorescence polarization, Mean [1, 11]: 0.224
fluorescence polarization, replicates [1, 11]: 0.3634 and 0.224 and 0.0847
fluorescence polarization, Mean [1, 12]: 0.1721
fluorescence polarization, replicates [1, 12]: 0.3798 and 0.03552 and 0.1011
fluorescence polarization, Mean [1, 13]: 0.276
fluorescence polarization, replicates [1, 13]: 0.3962 and 0.1585 and 0.2732
fluorescence polarization, Mean [1, 14]: 0.5137
fluorescence polarization, replicates [1, 14]: 0.7404 and 0.5273 and 0.2732
fluorescence polarization, Mean [1, 15]: 0.582
fluorescence polarization, replicates [1, 15]: 0.7568 and 0.5437 and 0.4454
Fluorescence polarization, Replicate 1-3 [1, 16]: 0.04918 and -0.08197 and -0.1475
fluorescence polarization, Mean [1, 16]: -0.06011
Fluorescence polarization, Replicate 1-3 [1, 17]: 0.1311 and -0.09016 and -0.09836
fluorescence polarization, Mean [1, 17]: -0.01913
Fluorescence polarization, Replicate 1-3 [1, 18]: -0.04098 and -0.1393 and -0.09836
fluorescence polarization, Mean [1, 18]: -0.0929
Fluorescence polarization, Replicate 1-3 [1, 19]: 0.07377 and 0.02459 and -0.06557
fluorescence polarization, Mean [1, 19]: 0.01093
Fluorescence polarization, Replicate 1-3 [1, 20]: 0.5984 and 0.4918 and 0.4016
fluorescence polarization, Mean [1, 20]: 0.4973
Fluorescence polarization, Replicate 1-3 [1, 21]: 0.4508 and 0.2049 and 0.1148
fluorescence polarization, Mean [1, 21]: 0.2568
Fluorescence polarization, Replicate 1-3 [1, 22]: 0.5082 and 0.3689 (2×)
fluorescence polarization, Mean [1, 22]: 0.4153
Fluorescence polarization, Replicate 1-3 [1, 23]: 0.7131 and 0.7705 and 0.7541
fluorescence polarization, Mean [1, 23]: 0.7459
Fluorescence polarization, Replicate 1-3 [1, 24]: 0.6393 and 0.6721 and 0.5902
fluorescence polarization, Mean [1, 24]: 0.6339
Fluorescence polarization, Replicate 1-3 [1, 25]: 0.7951 and 0.7459 and 0.7705
fluorescence polarization, Mean [1, 25]: 0.7705
Fluorescence polarization, Replicate 1-3 [1, 26]: 0.7623 and 0.7213 and 0.6639
fluorescence polarization, Mean [1, 26]: 0.7158
Fluorescence polarization, Replicate 1-3 [1, 27]: 0.9016 and 0.7623 and 0.7787
fluorescence polarization, Mean [1, 27]: 0.8142
fluorescence polarization, Mean ([2]; ADP + Pi, protein 0.01 μM): 0.08197
fluorescence polarization, Mean ([2]; ADP + Pi, protein 0.05 μM): 0.09836
fluorescence polarization, Mean ([2]; ADP + Pi, protein 0.075 μM): 0.06831
fluorescence polarization, Mean ([2]; ADP + Pi, protein 0.1 μM): 0.1776
fluorescence polarization, Mean ([2]; ADP + Pi, protein 0.5 μM): 0.5956
fluorescence polarization, Mean ([2]; ADP + Pi, protein 0.75 μM): 0.735
fluorescence polarization, Mean ([2]; ADP + Pi, protein 1 μM): 0.6831
fluorescence polarization, Mean ([2]; ADP + Pi, protein 5 μM): 0.9481
fluorescence polarization, Mean ([2]; ADP + Pi, protein 7.5 μM): 0.8825
fluorescence polarization, Mean ([2]; ADP + Pi, protein 10 μM): 0.9699
fluorescence polarization, Mean ([2]; ADP + Pi, protein 25 μM): 1.044
fluorescence polarization, Mean ([2]; ADP + Pi, protein 50 μM): 1.0929
fluorescence polarization, Mean ([2]; AMP-PNP, protein 0.01 μM): 0.2213
fluorescence polarization, Mean ([2]; AMP-PNP, protein 0.05 μM): 0.7268
fluorescence polarization, Mean ([2]; AMP-PNP, protein 0.075 μM): 0.4973
fluorescence polarization, Mean ([2]; AMP-PNP, protein 0.1 μM): 0.765
fluorescence polarization, Mean ([2]; AMP-PNP, protein 0.5 μM): 1.016
fluorescence polarization, Mean ([2]; AMP-PNP, protein 0.75 μM): 1.0082
fluorescence polarization, Mean ([2]; AMP-PNP, protein 1 μM): 1.049
fluorescence polarization, Mean ([2]; AMP-PNP, protein 5 μM): 1.046
fluorescence polarization, Mean ([2]; AMP-PNP, protein 7.5 μM): 1.123
fluorescence polarization, Mean ([2]; AMP-PNP, protein 10 μM): 1.156
fluorescence polarization, Mean ([2]; AMP-PNP, protein 25 μM): 1.142
fluorescence polarization, Mean ([2]; AMP-PNP, protein 50 μM): 1.15
Kd ([3]; ADP + Pi (1 mM each)): 850 ± 120 nM
Kd ([3]; AMP-PNP 1 mM): 370 ± 46 nM
fluorescence polarization, Mean [3, 4]: 0.06011
fluorescence polarization, replicates [3, 4]: -0.02732
fluorescence polarization, Mean [3, 5]: 0.1202
fluorescence polarization, replicates [3, 5]: 0.1284
fluorescence polarization, Mean [3, 6]: 0.1339
fluorescence polarization, replicates [3, 6]: 0.1284 and 0.1612 and 0.112
fluorescence polarization, Mean [3, 7]: 0.1639
fluorescence polarization, replicates [3, 7]: 0.2104 and 0.1284 and 0.153
fluorescence polarization, Mean [3, 8]: 0.6885
fluorescence polarization, replicates [3, 8]: 0.6858 and 0.5956
fluorescence polarization, Mean [3, 9]: 0.6093
fluorescence polarization, replicates [3, 9]: 0.5874 and 0.6038
fluorescence polarization, Mean [3, 10]: 0.8743
fluorescence polarization, replicates [3, 10]: 0.9071 and 0.9481
fluorescence polarization, Mean [3, 11]: 1.648
fluorescence polarization, replicates [3, 11]: 1.628 and 1.6612 and 1.653
fluorescence polarization, Mean [3, 12]: 1.617
fluorescence polarization, replicates [3, 12]: 1.6776 and 1.53 and 1.645
fluorescence polarization, Mean [3, 13]: 1.686
fluorescence polarization, replicates [3, 13]: 1.612 and 1.735 and 1.71
fluorescence polarization, Mean [3, 14]: 1.735
fluorescence polarization, replicates [3, 14]: 1.76 and 1.751 and 1.694
fluorescence polarization, Mean [3, 15]: 1.7459
fluorescence polarization, replicates [3, 15]: 1.735 and 1.76 and 1.743
Fluorescence polarization, Replicate 1-3 [3, 16]: 0.04372 and 0.1339 and -0.005464
fluorescence polarization, Mean [3, 16]: 0.05738
Fluorescence polarization, Replicate 1-3 [3, 17]: 0.06831 and 0.1421 and -0.03005
fluorescence polarization, Mean [3, 17]: 0.06011
Fluorescence polarization, Replicate 1-3 [3, 18]: 0.06831 and 0.1339 and 0.1503
fluorescence polarization, Mean [3, 18]: 0.1175
Fluorescence polarization, Replicate 1-3 [3, 19]: 0.1667 and 0.0847 and 0.1995
fluorescence polarization, Mean [3, 19]: 0.1503
Fluorescence polarization, Replicate 1-3 [3, 20]: 1.142 and 1.044 and 0.9536
Fluorescence polarization, Replicate 1-3 [3, 21]: 0.9454 and 1.044 and 0.9126
fluorescence polarization, Mean [3, 21]: 0.9672
Fluorescence polarization, Replicate 1-3 [3, 22]: 1.175 and 1.167 and 1.109
Fluorescence polarization, Replicate 1-3 [3, 23]: 1.5847 and 1.5765 and 1.601
fluorescence polarization, Mean [3, 23]: 1.587
Fluorescence polarization, Replicate 1-3 [3, 24]: 1.511 and 1.56 and 1.601
fluorescence polarization, Mean [3, 24]: 1.557
Fluorescence polarization, Replicate 1-3 [3, 25]: 1.675 and 1.56 and 1.667
fluorescence polarization, Mean [3, 25]: 1.634
Fluorescence polarization, Replicate 1-3 [3, 26]: 1.5847 and 1.699 and 1.626
fluorescence polarization, Mean [3, 26]: 1.637
Fluorescence polarization, Replicate 1-3 [3, 27]: 1.65 and 1.626 and 1.691
fluorescence polarization, Mean [3, 27]: 1.656
